According to patent US20250230193A1, “CYCLIC COMPOUND HAVING SELECTIVE KRAS INHIBITORY EFFECT ON HRAS AND NRAS” (CHUGAI SEIYAKU KABUSHIKI KAISHA, priority 2022, published 2025):
*1 amine or outer side, *2 acyl side, *3 side chain or, on linkers, in order; H or OH if unused. Where a SMILES comes first, the peptide text is derived from it. Bridges are numbered along the chain shown (N, C = ends). [ ]: non-standard residue; d: D form. The star is where a group is joined. hPhe(3,5-F2-4-CF3) = N[C@@H](CCc1cc(F)c(C(F)(F)F)c(F)c1)C(=O)O; NPrPhe(4-CF3) = CCCN[C@@H](Cc1ccc(C(F)(F)F)cc1)C(=O)O; NMeAbu(4,4,4-F3) = CN[C@@H](CC(F)(F)F)C(=O)O; X16 = O=C([C@@H](N[*:1])C1CC(F)(F)C1)[*:2]; NMeGly(cPent) = CN[C@H](C(=O)O)C1CCCC1; Ac4c(3,3-F2) = NC1(C(=O)O)CC(F)(F)C1; X9 = C[C@@](N[*:1])(C(=O)[*:2])C1CC1; Nva(3-Et) = CCC(CC)[C@H](N)C(=O)O; NMeD = CN[C@@H](CC(=O)O)C(=O)O; Ac4c(3-oxa) = NC1(C(=O)O)COC1; NMeL = CN[C@@H](CC(C)C)C(=O)O; αMeV = CC(C)[C@](C)(N)C(=O)O; αMeS = C[C@](N)(CO)C(=O)O; Iva = CC[C@](C)(N)C(=O)O; Morpholide = C1CN(*)CCO1; Ac5c = NC1(C(=O)O)CCCC1; Aze = O=C(O)[C@@H]1CCN1; Sar = CNCC(=O)O; Allyl = C=CC*

Key:
[1] = molecular target: GDP-bound NRAS wild-type protein (Homo sapiens, UniProt P01111); assay: Binding to NRAS by surface plasmon resonance (SPR), Single Cycle Kinetics; conditions: KD ratio NRAS/KRAS, SPR
Sequence of GDP-bound NRAS wild-type protein (P01111 whole entry): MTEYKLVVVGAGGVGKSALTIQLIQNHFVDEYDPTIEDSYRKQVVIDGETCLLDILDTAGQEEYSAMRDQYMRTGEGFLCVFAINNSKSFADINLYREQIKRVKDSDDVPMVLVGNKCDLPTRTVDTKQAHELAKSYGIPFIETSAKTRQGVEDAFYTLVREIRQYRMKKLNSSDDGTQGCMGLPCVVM

[2] = molecular target: GDP-bound HRAS wild-type protein (Homo sapiens, UniProt P01112); assay: Binding to HRAS by surface plasmon resonance (SPR), Single Cycle Kinetics; conditions: KD ratio HRAS/KRAS, SPR
Sequence of GDP-bound HRAS wild-type protein (P01112 whole entry): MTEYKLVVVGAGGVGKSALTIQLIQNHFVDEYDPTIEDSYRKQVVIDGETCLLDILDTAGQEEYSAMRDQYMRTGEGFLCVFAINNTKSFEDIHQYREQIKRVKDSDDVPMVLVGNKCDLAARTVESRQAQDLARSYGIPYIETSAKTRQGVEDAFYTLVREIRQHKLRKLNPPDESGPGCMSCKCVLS

| SMILES | NRAS/KRAS (ratio of KD value with respect to GDP-bound NRAS wild-type protein to KD value with respect to KRAS) [1] | HRAS/KRAS (ratio of KD value with respect to GDP-bound HRAS wild-type protein to KD value with respect to KRAS) [2] |
| --- | --- | --- |
| C=CCOC[C@]1(C)NC(=O)[C@@H]2CCCN2C(=O)[C@H](CCc2cc(F)c(C(F)(F)F)c(F)c2)NC(=O)CN(C)C(=O)[C@H](Cc2ccc(C(F)(F)F)cc2)N(CCC)C(=O)CN(C)C(=O)[C@@H]2CCN2C(=O)[C@H]([C@@H](C)CC)NC(=O)[C@H](CC(C)C)N(C)C(=O)C[C@@H](C(=O)N2CCOCC2)N(C)C(=O)[C@H](C2CCCC2)N(C)C1=O [PP0780] ([NMeL]I[Aze][Sar][NPrPhe(4-CF3)][Sar][hPhe(3,5-F2-4-CF3)]P[αMeS](Allyl)[NMeGly(cPent)][NMeD]-Morpholide; lactam N-11) | B (a compound having 3 or more and less than 10 is denoted as B) | B (a compound having 3 or more and less than 10 is denoted as B) |
| CCCN1C(=O)CN(C)C(=O)[C@@H]2CCN2C(=O)[C@H]([C@@H](C)CC)NC(=O)[C@H](CC(C)C)N(C)C(=O)C[C@@H](C(=O)N2CCOCC2)N(C)C(=O)[C@H](C2CCCC2)N(C)C(=O)C2(COC2)NC(=O)[C@@H]2CCCN2C(=O)[C@H](CCc2cc(F)c(C(F)(F)F)c(F)c2)NC(=O)CN(C)C(=O)[C@@H]1Cc1ccc(C(F)(F)F)cc1 [PP0782] ([NMeL]I[Aze][Sar][NPrPhe(4-CF3)][Sar][hPhe(3,5-F2-4-CF3)]P[Ac4c(3-oxa)][NMeGly(cPent)][NMeD]-Morpholide; lactam N-11) | B (a compound having 3 or more and less than 10 is denoted as B) | B (a compound having 3 or more and less than 10 is denoted as B) |
| CCCN1C(=O)CN(C)C(=O)[C@@H]2CCN2C(=O)[C@H]([C@@H](C)CC)NC(=O)[C@H](CC(C)C)N(C)C(=O)C[C@@H](C(=O)N2CCOCC2)N(C)C(=O)[C@H](C2CCCC2)N(C)C(=O)C2(CC(F)(F)C2)NC(=O)[C@@H]2CCCN2C(=O)[C@H](CCc2cc(F)c(C(F)(F)F)c(F)c2)NC(=O)CN(C)C(=O)[C@@H]1Cc1ccc(C(F)(F)F)cc1 [PP0783] ([NMeL]I[Aze][Sar][NPrPhe(4-CF3)][Sar][hPhe(3,5-F2-4-CF3)]P[Ac4c(3,3-F2)][NMeGly(cPent)][NMeD]-Morpholide; lactam N-11) | B (a compound having 3 or more and less than 10 is denoted as B) | B (a compound having 3 or more and less than 10 is denoted as B) |
| CCCN1C(=O)CN(C)C(=O)[C@@H]2CCN2C(=O)[C@H]([C@@H](C)CC)NC(=O)[C@H](CC(C)C)N(C)C(=O)C[C@@H](C(=O)N2CCOCC2)N(C)C(=O)[C@H](CC(F)(F)F)N(C)C(=O)C2(CCCC2)NC(=O)[C@@H]2CCCN2C(=O)[C@H](CCc2cc(F)c(C(F)(F)F)c(F)c2)NC(=O)CN(C)C(=O)[C@@H]1Cc1ccc(C(F)(F)F)cc1 [PP0784] ([NMeL]I[Aze][Sar][NPrPhe(4-CF3)][Sar][hPhe(3,5-F2-4-CF3)]P[Ac5c][NMeAbu(4,4,4-F3)][NMeD]-Morpholide; lactam N-11) | B (a compound having 3 or more and less than 10 is denoted as B) | B (a compound having 3 or more and less than 10 is denoted as B) |
| CCCN1C(=O)CN(C)C(=O)[C@@H]2CCN2C(=O)[C@H](C(CC)CC)NC(=O)[C@H](CC(C)C)N(C)C(=O)C[C@@H](C(=O)N2CCOCC2)N(C)C(=O)[C@H](C2CCCC2)N(C)C(=O)C2(CCCC2)NC(=O)[C@@H]2CCCN2C(=O)[C@H](CCc2cc(F)c(C(F)(F)F)c(F)c2)NC(=O)CN(C)C(=O)[C@@H]1Cc1ccc(C(F)(F)F)cc1 [PP0785] ([NMeL][Nva(3-Et)][Aze][Sar][NPrPhe(4-CF3)][Sar][hPhe(3,5-F2-4-CF3)]P[Ac5c][NMeGly(cPent)][NMeD]-Morpholide; lactam N-11) | B (a compound having 3 or more and less than 10 is denoted as B) | B (a compound having 3 or more and less than 10 is denoted as B) |
| CCCN1C(=O)CN(C)C(=O)[C@@H]2CCN2C(=O)[C@H](C2CC(F)(F)C2)NC(=O)[C@H](CC(C)C)N(C)C(=O)C[C@@H](C(=O)N2CCOCC2)N(C)C(=O)[C@H](C2CCCC2)N(C)C(=O)C2(CCCC2)NC(=O)[C@@H]2CCCN2C(=O)[C@H](CCc2cc(F)c(C(F)(F)F)c(F)c2)NC(=O)CN(C)C(=O)[C@@H]1Cc1ccc(C(F)(F)F)cc1 [PP0786] ([NMeL][X16][Aze][Sar][NPrPhe(4-CF3)][Sar][hPhe(3,5-F2-4-CF3)]P[Ac5c][NMeGly(cPent)][NMeD]-Morpholide; lactam N-11) | B (a compound having 3 or more and less than 10 is denoted as B) | B (a compound having 3 or more and less than 10 is denoted as B) |
| CCCN1C(=O)[C@@H]2CCN2C(=O)CN(C)C(=O)[C@H](C2CC(F)(F)C2)NC(=O)[C@H](CC(C)C)N(C)C(=O)C[C@@H](C(=O)N2CCOCC2)N(C)C(=O)[C@H](C2CCCC2)N(C)C(=O)C2(CCCC2)NC(=O)[C@@H]2CCCN2C(=O)[C@H](CCc2cc(F)c(C(F)(F)F)c(F)c2)NC(=O)CN(C)C(=O)[C@@H]1Cc1ccc(C(F)(F)F)cc1 [PP0787] ([NMeL][X16][Sar][Aze][NPrPhe(4-CF3)][Sar][hPhe(3,5-F2-4-CF3)]P[Ac5c][NMeGly(cPent)][NMeD]-Morpholide; lactam N-11) | C (A compound having a KD ratio of 0.1 or more and less than 3 is denoted as C) | B (a compound having 3 or more and less than 10 is denoted as B) |
| CCCN1C(=O)CN(C)C(=O)CN(C)C(=O)[C@H]([C@@H](C)CC)NC(=O)[C@H](CC(C)C)N(C)C(=O)C[C@@H](C(=O)N(C)C)N(C)C(=O)[C@H](C2CCCC2)N(C)C(=O)C2(CCCC2)NC(=O)[C@@H]2CCCN2C(=O)[C@H](CCc2cc(F)c(C(F)(F)F)c(F)c2)NC(=O)CN(C)C(=O)[C@@H]1Cc1ccc(C(F)(F)F)cc1 [PP0788] ([NMeL]I[Sar][Sar][NPrPhe(4-CF3)][Sar][hPhe(3,5-F2-4-CF3)]P[Ac5c][NMeGly(cPent)][NMeD]-NMe2; lactam N-11) | B (a compound having 3 or more and less than 10 is denoted as B) | C (A compound having a KD ratio of 0.1 or more and less than 3 is denoted as C) |
| CCCN1C(=O)[C@@H]2CCN2C(=O)CN(C)C(=O)[C@H]([C@@H](C)CC)NC(=O)[C@H](CC(C)C)N(C)C(=O)C[C@@H](C(=O)N2CCOCC2)N(C)C(=O)[C@H](C2CCCC2)N(C)C(=O)C2(CCCC2)NC(=O)[C@@H]2CCCN2C(=O)[C@H](CCc2cc(F)c(C(F)(F)F)c(F)c2)NC(=O)CN(C)C(=O)[C@@H]1Cc1ccc(C(F)(F)F)cc1 [PP0789] ([NMeL]I[Sar][Aze][NPrPhe(4-CF3)][Sar][hPhe(3,5-F2-4-CF3)]P[Ac5c][NMeGly(cPent)][NMeD]-Morpholide; lactam N-11) | C (A compound having a KD ratio of 0.1 or more and less than 3 is denoted as C) | B (a compound having 3 or more and less than 10 is denoted as B) |
| CCCN1C(=O)[C@@H]2CCN2C(=O)CN(C)C(=O)[C@H]([C@@H](C)CC)NC(=O)[C@H](CC(C)C)N(C)C(=O)C[C@@H](C(=O)N2CCOCC2)N(C)C(=O)[C@H](C2CCCC2)N(C)C(=O)[C@](C)(CC)NC(=O)[C@@H]2CCCN2C(=O)[C@H](CCc2cc(F)c(C(F)(F)F)c(F)c2)NC(=O)CN(C)C(=O)[C@@H]1Cc1ccc(C(F)(F)F)cc1 [PP0790] ([NMeL]I[Sar][Aze][NPrPhe(4-CF3)][Sar][hPhe(3,5-F2-4-CF3)]P[Iva][NMeGly(cPent)][NMeD]-Morpholide; lactam N-11) | C (A compound having a KD ratio of 0.1 or more and less than 3 is denoted as C) | B (a compound having 3 or more and less than 10 is denoted as B) |
| CCCN1C(=O)[C@@H]2CCN2C(=O)CN(C)C(=O)[C@H]([C@@H](C)CC)NC(=O)[C@H](CC(C)C)N(C)C(=O)C[C@@H](C(=O)N2CCOCC2)N(C)C(=O)[C@H](C2CCCC2)N(C)C(=O)[C@](C)(C2CC2)NC(=O)[C@@H]2CCCN2C(=O)[C@H](CCc2cc(F)c(C(F)(F)F)c(F)c2)NC(=O)CN(C)C(=O)[C@@H]1Cc1ccc(C(F)(F)F)cc1 [PP0791] ([NMeL]I[Sar][Aze][NPrPhe(4-CF3)][Sar][hPhe(3,5-F2-4-CF3)]P[X9][NMeGly(cPent)][NMeD]-Morpholide; lactam N-11) | C (A compound having a KD ratio of 0.1 or more and less than 3 is denoted as C) | B (a compound having 3 or more and less than 10 is denoted as B) |
| CCCN1C(=O)[C@@H]2CCN2C(=O)CN(C)C(=O)[C@H]([C@@H](C)CC)NC(=O)[C@H](CC(C)C)N(C)C(=O)C[C@@H](C(=O)N2CCOCC2)N(C)C(=O)[C@H](C2CCCC2)N(C)C(=O)[C@](C)(C(C)C)NC(=O)[C@@H]2CCCN2C(=O)[C@H](CCc2cc(F)c(C(F)(F)F)c(F)c2)NC(=O)CN(C)C(=O)[C@@H]1Cc1ccc(C(F)(F)F)cc1 [PP0792] ([NMeL]I[Sar][Aze][NPrPhe(4-CF3)][Sar][hPhe(3,5-F2-4-CF3)]P[αMeV][NMeGly(cPent)][NMeD]-Morpholide; lactam N-11) | C (A compound having a KD ratio of 0.1 or more and less than 3 is denoted as C) | B (a compound having 3 or more and less than 10 is denoted as B) |
